Test results: the OPERA property sets (Mansouri et al. 2018)
Converted amounts (≈) assume the structure as drawn.

| SMILES | solubility (25 °C) [µM] | solubility (20 °C) [µM] |
| --- | --- | --- |
| O=Cc1ccc([N+](=O)[O-])cc1 | 15500 (≈ 2340 µg/mL) |  |
| CCCCCCCOC(=O)c1ccc(N)cc1 | 25.1 (≈ 5.91 µg/mL) |  |
| Clc1ccc(-c2c(Cl)cccc2Cl)cc1 | 0.617 (≈ 0.159 µg/mL) |  |
| CCCOC(N)=O | 741000 (≈ 76400 µg/mL) |  |
| CCCCCCCCOC(=O)c1ccc(N)cc1 | 3.98 (≈ 0.993 µg/mL) |  |
| Cc1ccco1 |  | 36500 (≈ 3000 µg/mL) |
| CCCCCC(C)O (stereo not given) | 28100 (≈ 3270 µg/mL) |  |
| Clc1ccc(Cl)c(-c2ccccc2)c1Cl | 0.323 (≈ 0.0833 µg/mL) |  |
| CCCCCCN | 119000 (≈ 12000 µg/mL) |  |
| Clc1cccc(-c2ccccc2)c1Cl | 4.47 (≈ 0.997 µg/mL) |  |
| Clc1ccc(-c2ccc(Cl)c(Cl)c2Cl)c(Cl)c1 | 0.024 (≈ 0.00783 µg/mL) |  |
| Clc1ccccc1-c1ccc(Cl)c(Cl)c1Cl | 0.148 (≈ 0.0432 µg/mL) |  |
| Clc1cc(Cl)c(-c2c(Cl)ccc(Cl)c2Cl)cc1Cl | 0.0117 (≈ 0.00424 µg/mL) |  |
| CCCCCCOCCO |  | 67700 (≈ 9900 µg/mL) |
| Clc1ccccc1-c1c(Cl)cccc1Cl | 1.26 (≈ 0.324 µg/mL) |  |
| Clc1cccc(-c2c(Cl)ccc(Cl)c2Cl)c1Cl | 0.166 (≈ 0.0542 µg/mL) |  |
| CCCC[N+](=O)[O-] | 44600 (≈ 4600 µg/mL) |  |

More lines, now with the values ahead:

| solubility (25 °C) [µM] | solubility (20 °C) [µM] | SMILES |
| --- | --- | --- |
| 708000 (≈ 83700 µg/mL) |  | CCOCCOCC |
| 0.0151 (≈ 0.00544 µg/mL) |  | Clc1cc(Cl)c(Cl)c(-c2c(Cl)ccc(Cl)c2Cl)c1 |
| 790 (≈ 94.9 µg/mL) |  | CCc1ccc(C)cc1 |
| 9990 (≈ 1140 µg/mL) |  | Fc1cccc(F)c1 |
|  | 13700 (≈ 3000 µg/mL) | CCCCOCCOCCOCCCC |
| 0.0224 (≈ 0.00731 µg/mL) |  | Clc1ccc(-c2c(Cl)ccc(Cl)c2Cl)cc1Cl |
|  | 11500 (≈ 2000 µg/mL) | CCCCOCCOCCCC |
| 12300 (≈ 2220 µg/mL) |  | CC(=O)Nc1ccccc1[N+](=O)[O-] |
